Source: ChEMBL document CHEMBL1135113 (Bioorg Med Chem Lett, 2002)
Calls of active or inactive are those of the source. The calls are words filed in the database; no cut-off is given here.

Experiments:
[1] = species on record: Homo sapiens; assay: Efficacy of compound in cell migration of primary human Smooth Muscle Cells (SMC) was determined; assay type: functional
[2] = molecular target: T1, Integrin alpha-4/beta-1 (Homo sapiens) (UniProt P05556+P13612); assay: Cell adhesion activity against alpha4-beta1 integrin at 10 e-5M (not active); assay type: protein-complex assay
[3] = molecular target: Integrin alpha-5/beta-1 (Homo sapiens) (UniProt P05556+P08648); assay: Cell adhesion activity against alpha5-beta1 integrin; assay type: protein-complex assay
[4] = molecular target: Integrin alpha-V/beta-3 (Homo sapiens, UniProt P05106+P06756); assay: Selectivity against alphaV-beta3 integrin; assay type: protein-complex assay
[5] = molecular target: T2, Integrin alpha-IIb/beta-3 (Homo sapiens, UniProt P05106+P08514); assay: Selectivity against Integrin alpha-IIb beta-3 receptor versus fibrinogen; Not active; assay type: protein-complex assay
[6] = molecular target: T1, Integrin alpha-4/beta-1 (Homo sapiens); assay: Cell adhesion activity against alpha4-beta1 integrin at 10e-5 M; assay type: protein-complex assay
[7] = molecular target: T2, Integrin alpha-IIb/beta-3; assay: Selectivity against alpha IIb beta-3 integrin; Not active; assay type: protein-complex assay

T2 sequence (P05106 27-788 limits assumed): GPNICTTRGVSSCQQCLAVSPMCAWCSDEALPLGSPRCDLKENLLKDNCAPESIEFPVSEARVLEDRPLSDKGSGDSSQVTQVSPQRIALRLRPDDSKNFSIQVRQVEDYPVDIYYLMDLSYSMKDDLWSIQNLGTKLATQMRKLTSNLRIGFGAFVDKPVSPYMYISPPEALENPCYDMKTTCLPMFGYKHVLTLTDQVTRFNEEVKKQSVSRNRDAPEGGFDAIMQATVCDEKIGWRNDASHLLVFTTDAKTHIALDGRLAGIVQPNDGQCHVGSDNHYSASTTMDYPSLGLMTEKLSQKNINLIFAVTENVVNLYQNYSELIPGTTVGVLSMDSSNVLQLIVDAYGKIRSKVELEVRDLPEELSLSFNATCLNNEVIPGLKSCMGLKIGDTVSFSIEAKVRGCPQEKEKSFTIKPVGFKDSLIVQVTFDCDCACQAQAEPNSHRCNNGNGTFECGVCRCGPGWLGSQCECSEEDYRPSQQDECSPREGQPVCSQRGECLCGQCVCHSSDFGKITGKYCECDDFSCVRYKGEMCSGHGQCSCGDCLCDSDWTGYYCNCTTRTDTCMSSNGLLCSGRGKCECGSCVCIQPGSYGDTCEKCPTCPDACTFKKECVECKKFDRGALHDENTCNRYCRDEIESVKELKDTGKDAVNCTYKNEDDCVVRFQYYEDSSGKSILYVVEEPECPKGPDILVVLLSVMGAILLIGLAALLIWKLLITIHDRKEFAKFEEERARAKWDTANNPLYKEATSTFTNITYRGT
T2 sequence (P08514 32-887 limits assumed): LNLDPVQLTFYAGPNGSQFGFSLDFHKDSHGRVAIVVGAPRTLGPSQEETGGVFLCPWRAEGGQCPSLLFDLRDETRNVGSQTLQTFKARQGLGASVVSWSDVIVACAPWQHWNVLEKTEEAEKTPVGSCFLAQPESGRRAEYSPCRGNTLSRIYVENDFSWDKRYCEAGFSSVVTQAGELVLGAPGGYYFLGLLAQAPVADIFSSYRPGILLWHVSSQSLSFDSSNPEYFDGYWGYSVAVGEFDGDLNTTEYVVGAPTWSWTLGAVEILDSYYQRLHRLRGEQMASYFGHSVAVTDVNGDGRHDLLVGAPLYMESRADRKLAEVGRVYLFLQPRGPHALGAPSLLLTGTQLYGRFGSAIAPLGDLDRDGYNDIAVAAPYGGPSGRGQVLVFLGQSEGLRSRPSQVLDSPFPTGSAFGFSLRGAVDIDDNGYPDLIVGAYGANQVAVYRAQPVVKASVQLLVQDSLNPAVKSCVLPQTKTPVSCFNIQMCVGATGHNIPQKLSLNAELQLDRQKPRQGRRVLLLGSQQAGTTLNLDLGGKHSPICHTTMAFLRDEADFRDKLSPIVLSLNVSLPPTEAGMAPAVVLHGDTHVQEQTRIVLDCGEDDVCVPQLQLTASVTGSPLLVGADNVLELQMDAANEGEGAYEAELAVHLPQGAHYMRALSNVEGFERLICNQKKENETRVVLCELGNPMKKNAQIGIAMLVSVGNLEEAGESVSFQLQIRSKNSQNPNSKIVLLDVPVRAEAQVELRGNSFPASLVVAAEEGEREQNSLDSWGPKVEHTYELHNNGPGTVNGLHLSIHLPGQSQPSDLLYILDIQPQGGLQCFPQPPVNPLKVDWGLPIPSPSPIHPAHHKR
T2 sequence (P08514 891-1039 limits assumed): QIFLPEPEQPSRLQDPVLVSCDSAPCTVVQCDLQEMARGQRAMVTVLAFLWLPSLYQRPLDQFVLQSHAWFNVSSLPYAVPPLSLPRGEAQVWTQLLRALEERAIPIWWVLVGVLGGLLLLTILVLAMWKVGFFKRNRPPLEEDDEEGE
Chain of Integrin alpha-V/beta-3 (P05106 27-788 limits assumed): as the sequence (P05106 27-788 limits assumed) above
Chain of Integrin alpha-V/beta-3 (P06756 31-889 limits assumed): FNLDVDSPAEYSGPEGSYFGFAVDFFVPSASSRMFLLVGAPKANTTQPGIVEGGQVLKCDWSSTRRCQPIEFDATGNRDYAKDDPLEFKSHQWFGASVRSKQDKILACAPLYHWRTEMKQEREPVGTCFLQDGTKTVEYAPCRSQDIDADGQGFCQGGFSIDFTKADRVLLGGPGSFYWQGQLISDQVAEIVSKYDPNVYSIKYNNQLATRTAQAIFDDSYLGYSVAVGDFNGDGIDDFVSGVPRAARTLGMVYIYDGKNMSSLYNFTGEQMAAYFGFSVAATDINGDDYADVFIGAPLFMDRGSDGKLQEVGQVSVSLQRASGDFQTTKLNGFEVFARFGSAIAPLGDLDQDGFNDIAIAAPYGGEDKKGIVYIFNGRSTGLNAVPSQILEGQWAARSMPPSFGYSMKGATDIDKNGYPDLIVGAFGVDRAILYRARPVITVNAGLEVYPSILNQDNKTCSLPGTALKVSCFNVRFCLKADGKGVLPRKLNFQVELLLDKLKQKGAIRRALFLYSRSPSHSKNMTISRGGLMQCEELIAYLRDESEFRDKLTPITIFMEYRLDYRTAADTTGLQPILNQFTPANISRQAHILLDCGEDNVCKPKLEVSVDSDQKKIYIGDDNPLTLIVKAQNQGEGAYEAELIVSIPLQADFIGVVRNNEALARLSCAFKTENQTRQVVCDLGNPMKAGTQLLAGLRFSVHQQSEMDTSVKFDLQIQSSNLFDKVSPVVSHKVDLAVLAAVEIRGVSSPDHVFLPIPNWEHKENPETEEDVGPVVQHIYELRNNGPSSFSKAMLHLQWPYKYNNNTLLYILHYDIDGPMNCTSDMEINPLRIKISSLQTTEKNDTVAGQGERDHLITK
Chain of Integrin alpha-V/beta-3 (P06756 891-1048 limits assumed): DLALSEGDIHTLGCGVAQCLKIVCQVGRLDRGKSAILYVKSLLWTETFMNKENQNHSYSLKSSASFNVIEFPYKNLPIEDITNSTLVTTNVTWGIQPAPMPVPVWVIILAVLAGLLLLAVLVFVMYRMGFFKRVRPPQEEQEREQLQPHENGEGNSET

SMILES	IC50 [1] [nM]	inhibition [2]	inhibition [3]	IC50 [4] [nM]	IC50 [5]	inhibition [6] [%]	IC50 [7]
O=C(CNC(=O)c1cnc(NC(=O)NCc2ccccc2)o1)NC[C@H](NC(=O)OCc1ccccc1)C(=O)O	500	inactive	inactive	1.8	Not Active		
O=C(CNC(=O)c1ccc(NC(=O)NCc2ccccc2)o1)NC[C@H](NC(=O)OCc1ccccc1)C(=O)O	1200		inactive	0.4		2	Not Active
